According to US4139605A, “Water-soluble, non-ionizing, radiopaque compounds and contrast compositions containing the same” (Bracco Industria Chimica S.p.A., priority 1977, dated 1979):
≈ marks a conversion by molar mass, not a printed value. Entries after “also recorded” stand apart in the source; their conditions may differ. Like-named read-outs stand apart in the source and are kept apart here.

What was measured:
[1] = Solubility in water, methanol and ethanol; type: physicochemical
[2] = Osmotic pressure of aqueous solutions at 37° C.; type: physicochemical
Description: (§1) Toxicity is listed as LD50 in mg I/kg body weight 12 days after intravenous injection and 48 hours after intracerebral injection in mice. The osmotic pressure was determined at 37° C. in solutions containing 400 mg I per ml, unless specifically noted otherwise, and is indicated in atmospheres.

mouse [3] = experiment: Toxicity, LD50 48 hours after intracerebral injection in mice; type: in vivo; conditions: 48 hours after injection
Description: as §1

[4] = Viscosity of aqueous solutions at body temperature; type: physicochemical; conditions: aqueous solutions containing
[5] = Stability and storage life of solutions; type: physicochemical; conditions: aqueous solutions
[6] = General toxicity and side effects; type: in vivo; conditions: in words
mouse [7] = experiment: Toxicity, LD50 12 days after intravenous injection in mice; type: in vivo; conditions: 12 days after injection
Description: Properties of compounds A, B, C, D of this invention, of the chemically nearest known compounds E, F, and of chemically less closely related known radiopaque compounds G, H, I used heretofore for visualizing blood vessels and cavities of the spinal cord and the brain are listed in the Table hereinbelow. Toxicity is listed as LD50 in mg I/kg body weight 12 days after intravenous injection and 48 hours after intracerebral injection in mice. The osmotic pressure was determined at 37° C. in solutions containing 400 mg I per ml, unless specifically noted otherwise, and is indicated in atmospheres.

rabbits = experiment: Intracisternal toxicity, LD50 (48 hours) in rabbits; type: in vivo
Description: The preferred compounds of the invention are those identified in the table above by letters B and C. […] LD50 (48 hours) in rabbits is about 233 mg I per kg.

[8] = water, 20° C., read-out: solubility in water

Compound | Osmotic pressure ([2]; 400 mg I per ml) | Toxicity, LD50, intracerebral (mouse [3]) | Toxicity, LD50, intravenous (mouse [7]) | solubility in water ([1]; water, in words) | further results
CC(O)C(=O)Nc1c(I)c(C(=O)NCCOCCOCCNC(=O)c2c(I)c(NC(=O)C(C)O)c(I)c(C(=O)NC(CO)CO)c2I)c(I)c(C(=O)NC(CO)CO)c1I (stereo not shown) [Compound A, 1,8-bis-[5,-(1,3-dihydroxyisopropyl)aminocarbonyl-3-(2-hydroxypropionyl)amino-2,4,6-triiodo-benzoylamino]-3,6,dioxaoctane] | 8.15 atm. | 1100 mg I/kg | – | – | solubility in ethanol ([1]; boiling ethanol): about 2.5%; solubility in ethanol ([1]; ethanol, in words): sparingly soluble in ethanol; solubility in ethanol ([1]; ethanol, room temperature): about 1%; solubility in methanol ([1]; methanol, in words): soluble in methanol; solubility [1, 8]: ~500 mg/mL (≈ 329 mM); solubility ([1]; water, boiling temperature, read-out: solubility in water): ~1000 mg/mL (≈ 658 mM)
CC(O)C(=O)Nc1c(I)c(C(=O)NCCCOCCOCCOCCOCCCNC(=O)c2c(I)c(NC(=O)C(C)O)c(I)c(C(=O)NC(CO)CO)c2I)c(I)c(C(=O)NC(CO)CO)c1I (stereo not shown) [Compound B, 1,16-bis-[5-(1,3-dihydroxyisopropyl)aminocarbonyl-3-(2-hydroxypropionyl)amino-2,4,6-triiodobenzoylamino]-4,7,10,13-tetraoxahexadecane] | – | 990 mg I/kg | – | – | viscosity [4]: relatively low viscosity; stability of solutions [5]: stable; storage life of solutions [5]: long storage life; side effects [6]: lack of side effects; solubility ([1]; methanol, organic solvent or mixture, boiling methanol, read-out: solubility in methanol): 500 mg/mL (≈ 306 mM); solubility [1, 8]: ~1000 mg/mL (≈ 611 mM)
CC(O)C(=O)Nc1c(I)c(C(=O)NC(CO)CO)c(I)c(C(=O)N(C)CCOCCOCCOCCN(C)C(=O)c2c(I)c(NC(=O)C(C)O)c(I)c(C(=O)NC(CO)CO)c2I)c1I (stereo not shown) [Compound C, 1,11-bis [N-methyl-N-{5-(1,3-dihydroxyisopropyl)aminocarbonyl-3-(2-hydroxypropionyl)amino-2,4,6-triiodobenzoyl}-amino]-3,6,9-trioxaundecane] | 10.59 atm. | 1130 mg I/kg | 14000 mg I/kg | dissolves readily in water | intracisternal toxicity (rabbits; in words): particularly low; LD50 (48 hours), intracisternal (rabbits; rabbits, 48 hours): about 233 mg I per kg; viscosity [4]: relatively low viscosity; stability of solutions [5]: stable; storage life of solutions [5]: long storage life; side effects [6]: lack of side effects; solubility in ethanol ([1]; ethanol, in words): only moderately well in ethanol
CC(O)C(=O)Nc1c(I)c(C(=O)NC(CO)CO)c(I)c(C(=O)N(C)CCCOCCOCCOCCOCCCN(C)C(=O)c2c(I)c(NC(=O)C(C)O)c(I)c(C(=O)NC(CO)CO)c2I)c1I (stereo not shown) [Compound D, 1,16-bis-[N-methyl-N-{5-(1,3-dihydroxyisopropyl)aminocarbonyl-3-(2-hydroxypropionyl)amino-2,4,6-triiodobenzoyl}amino]-4,7,10,13-tetraoxahexadecane] | 9.42 atm. | 1420 mg I/kg | – | dissolves very readily in water; also recorded: readily dissolved in water | solubility in methanol ([1]; methanol, in words): soluble in methanol
CC(O)C(=O)Nc1c(I)c(C(=O)NC(CO)CO)c(I)c(C(=O)NC(CO)CO)c1I (stereo not drawn) [E, 5-α-hydroxypropionylamino-2,4,6-triiodo-isophthalic acid-bis-(1,3-dihydroxyisopropylamide)] | 22.2 atm. | 1500 mg I/kg | 21800 mg I/kg | – | –
CC(O)C(=O)Nc1c(I)c(C(=O)NCCCOCCOCCOCCOCCCNC(=O)c2c(I)c(NC(=O)C(C)O)c(I)c(C(=O)NC(C)(CO)CO)c2I)c(I)c(C(=O)NC(C)(CO)CO)c1I (stereo not shown) [Example 9, 1,16-bis-[5-(1,3-dihydroxy-2-methyl-2propyl)aminocarbonyl-3-(2-hydroxypropionyl)amino-2,4,6-triiodo-benzoylamino]-4,7,10,13tetraoxahexadecane] | – | – | – | dissolves readily in water | –
CC(O)C(=O)Nc1c(I)c(C(=O)NCCOCCOCCOCCOCCNC(=O)c2c(I)c(NC(=O)C(C)O)c(I)c(C(=O)NC(C)(CO)CO)c2I)c(I)c(C(=O)NC(C)(CO)CO)c1I (stereo not shown) [Example 10, 1,14-bis-[5-(1,3-dihydroxy-2methyl-2-propyl)aminocarbonyl-3-(2-hydroxypropionyl)amino-2,4,6-triiodo-benzoylamino]-3,6,9,12-tetraoxatetradecane] | – | – | – | dissolved readily in water | –
CC(O)C(=O)Nc1c(I)c(C(=O)NCCOCCNC(=O)c2c(I)c(NC(=O)C(C)O)c(I)c(C(=O)NC(C)(CO)CO)c2I)c(I)c(C(=O)NC(C)(CO)CO)c1I (stereo not shown) [Example 11, 1,5-Bis-[5-(1,3-dihydroxy-2-methyl-2-propyl)aminocarbonyl-3-(2-hydroxypropionyl)amino-2,4,6-triiodo-benzoylamino]-3-oxapentane] | – | – | – | – | solubility ([1]; water, per 100 ml, 20° C., read-out: solubility in water): > 1000 mg/mL
O=C(CO)Nc1c(I)c(C(=O)NCCOCCOCCOCCOCCNC(=O)c2c(I)c(NC(=O)CO)c(I)c(C(=O)NC(CO)CO)c2I)c(I)c(C(=O)NC(CO)CO)c1I [Example 12, 1,14-bis-[5-(1,3-dihydroxyisopropyl)aminocarbonyl-3-hydroxy-acetylamino-2,4,6-triiodo-benzoylamino]-3,6,9,12-tetraoxa-tetradecane] | – | – | – | readily dissolved in water | –
CC(=O)Nc1c(I)c(C(=O)N[C@H]2C(O)O[C@H](CO)[C@@H](O)[C@@H]2O)c(I)c(N(C)C(C)=O)c1I (stereo partly shown) [F, 3-acetylamino-5-N-methyl-acetylamino-2,4,6-triiodo-benzoyl-glucosamine] | 14.7 atm. | 1400 mg I/kg | 10200 mg I/kg | – | –
CNC(=O)c1c(I)c(NC(=O)CCCCC(=O)Nc2c(I)c(C(=O)O)c(I)c(C(=O)NC)c2I)c(I)c(C(=O)O)c1I [G, 5,5'-adipoyldiimino-bis-(2,4,6-triiodo-N-methyl-isophthalamic acid)] | – | 600 mg I/kg | 5500 mg I/kg | – | Osmotic pressure ([2]; 280 mg I/ml): 27.5 atm.
CNC(=O)c1c(I)c(NC(=O)CN(CC(=O)Nc2c(I)c(C(=O)O)c(I)c(C(=O)NC)c2I)CC(=O)Nc2c(I)c(C(=O)O)c(I)c(C(=O)NC)c2I)c(I)c(C(=O)O)c1I [H, 5,5',5"-(nitrilotriacetyl-triimino-tris-)-2,4,6-triiodo-N'-methyl-isophthalamic acid] | 36.2 atm. | – | 5800 mg I/kg | – | –
CC(=O)Nc1c(I)c(NC(C)=O)c(I)c(C(=O)O)c1I [I, 3,5-bis-acetylamino-2,4,6-triiodobenzoic acid] | – | – | 7600 mg I/kg | – | –
